The values that follow come from ChEMBL document CHEMBL3259702, “Discovery of GS-9973, a selective and orally efficacious inhibitor of spleen tyrosine kinase” (J Med Chem, 2014).

Usually IC50 stands for the concentration that gives 50% inhibition. A higher IC50 goes with a need for much substance. The term solubility denotes how much of the substance goes into solution per volume. As usually defined, the EC50 is the concentration giving half of the maximal effect. By ED50 is commonly meant the dose that gives a 50% effect, or the effect in half of the subjects. Usually half-life stands for how long it takes for the measured level to halve. By clearance is commonly meant the volume of plasma or blood freed of the substance per unit of time. Low values mean inefficient removal, high ones efficient removal. By bioavailability is commonly meant dose-corrected exposure relative to a reference, in per cent. The low end stands for little systemic uptake, the high end for much systemic uptake. What is called Papp A→B is how fast a substance crosses the layer from the apical side. One may read the Papp B→A as how fast a substance crosses the layer from the basolateral side. What is called CL/F is the apparent clearance, not corrected for the fraction that reaches the circulation.

One data set has as its target T1, Cytochrome P450 1A2 (Homo sapiens, UniProt P05177).
T1 sequence (P05177 whole entry): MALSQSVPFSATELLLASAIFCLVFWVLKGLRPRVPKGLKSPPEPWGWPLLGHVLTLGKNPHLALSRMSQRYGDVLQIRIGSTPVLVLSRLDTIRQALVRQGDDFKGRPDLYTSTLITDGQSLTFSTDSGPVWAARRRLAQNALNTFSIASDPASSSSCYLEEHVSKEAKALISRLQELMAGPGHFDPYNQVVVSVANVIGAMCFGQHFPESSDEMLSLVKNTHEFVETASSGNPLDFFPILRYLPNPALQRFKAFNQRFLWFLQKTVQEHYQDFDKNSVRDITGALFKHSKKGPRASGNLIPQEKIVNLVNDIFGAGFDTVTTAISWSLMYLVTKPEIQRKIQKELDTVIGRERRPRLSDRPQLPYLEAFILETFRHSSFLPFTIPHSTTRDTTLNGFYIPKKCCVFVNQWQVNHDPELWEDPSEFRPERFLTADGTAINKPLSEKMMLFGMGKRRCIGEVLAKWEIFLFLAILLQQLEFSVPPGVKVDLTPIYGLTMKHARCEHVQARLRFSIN
Kind of data set: Inhibition of CYP1A2 (unknown origin). Format: ADME.

The next data set deals with Cytochrome P450 2C9 (Homo sapiens, UniProt P11712). Kind of data set: Inhibition of CYP2C9 (unknown origin). In kind it is ADME.
A further data set deals with Cytochrome P450 2C19 (Homo sapiens, UniProt P33261). The data set is described as follows: Inhibition of CYP2C19 (unknown origin). Format: ADME.
The target of the next data set is Cytochrome P450 2D6 (Homo sapiens, UniProt P10635). The data set is described as follows: Inhibition of CYP2D6 (unknown origin). Format: ADME.
Data set [1] can be described thus: Unbound fraction in human plasma. Format: ADME, cell-free.
A short description of data set [2]: Solubility of the compound in crystalline form in simulated intestinal fluid under fed condition. In kind it is physicochemical.
Data set [3] can be described thus: Solubility of the compound in crystalline form in simulated intestinal fluid under fasted condition. Format: physicochemical.
Data set [4] concerns the target Tyrosine-protein kinase SYK (Rattus norvegicus, UniProt Q64725). Kind of data set: In vitro inhibition of Syk phosphorylation in rat whole blood. Format: tissue-based.
Data set [5] relates to Rattus norvegicus. The data set is described as follows: Antiinflammatory activity in po dosed Lewis rat collagen-induced arthritis model assessed as disease parameter measured as body weight treated twice daily on arthritic days 0 to 7.
The test system of data set [6] is Rattus norvegicus. The data set is described as follows: Antiinflammatory activity in po dosed Lewis rat collagen-induced arthritis model assessed as disease parameter measured as ankle diameter treated twice daily on arthritic days 0 to 7.
Data set [7] deals with Rattus norvegicus. The data set is described as follows: Antiinflammatory activity in po dosed Lewis rat collagen-induced arthritis model assessed as disease parameter measured as ankle inflammation treated twice daily on arthritic days 0 to 7 by histological analysis.
For data set [8], the system named is Rattus norvegicus. Kind of data set: Antiinflammatory activity in po dosed Lewis rat collagen-induced arthritis model assessed as disease parameter measured as knee inflammation treated twice daily on arthritic days 0 to 7 by histological analysis.
In data set [9] the test system is Rattus norvegicus. Kind of data set: Antiinflammatory activity in po dosed Lewis rat collagen-induced arthritis model assessed as disease parameter measured as peritosteal bone width treated twice daily on arthritic days 0 to 7 by histological analysis.
A short description of data set [10]: Clearance in human liver microsomes at 3 uM by LC/MS/MS analysis. Format: ADME.
The nature of data set [11]: Half life in rat liver microsomes at 3 uM by LC/MS/MS analysis. In kind it is ADME.
A short description of data set [12]: Half life in dog liver microsomes at 3 uM by LC/MS/MS analysis. In kind it is ADME, Canis lupus familiaris. Background: Liver microsomes are vesicles of endoplasmic reticulum, rich in cytochrome P450 enzymes.
A short description of data set [13]: Half life in human liver microsomes at 3 uM by LC/MS/MS analysis. In kind it is ADME.
Data set [14] in a line: Clearance in Sprague-Dawley rat at 0.4 mg/kg, iv. Also noted: dose 0.4 mg/kg, route intravenous. The settings on record: in vivo. In kind it is ADME, organism-based.
The nature of data set [15]: Clearance in non-naive beagle dog at 0.4 mg/kg, iv. In kind it is ADME, organism-based, Canis lupus familiaris. Also noted: dose 0.4 mg/kg, route intravenous. To be noted: in vivo.
Data set [16] in a line: Volume of distribution at steady state in Sprague-Dawley rat at 0.4 mg/kg, iv. In kind it is ADME, organism-based. Also noted: dose 0.4 mg/kg, route intravenous. To be noted: in vivo, read-out: Vdss.
The nature of data set [17]: Volume of distribution at steady state in non-naive beagle dog at 0.4 mg/kg, iv. Format: ADME, organism-based, Canis lupus familiaris. Also noted: dose 0.4 mg/kg, route intravenous. The settings on record: in vivo, read-out: Vdss.
A short description of data set [18]: Oral bioavailability in Sprague-Dawley rat at 1 mg/kg. In kind it is ADME, organism-based. To be noted: in vivo.
Data set [19] can be described thus: Oral bioavailability in non-naive beagle dog at 1 mg/kg. To be noted: in vivo. In kind it is ADME, organism-based, Canis lupus familiaris.
Data set [20] in a line: Plasma protein binding in Sprague-Dawley rat at 1 mg/kg, po after 24 hrs by LC-MS/MS analysis. In kind it is ADME, organism-based. Also on record: dose 1 mg/kg, route oral. The settings on record: read-out: PPB (converted).
The nature of data set [21]: Plasma protein binding in non-naive beagle dog at 1 mg/kg, po after 24 hrs by LC-MS/MS analysis. Also noted: dose 1 mg/kg, route oral. To be noted: read-out: PPB (converted). Format: ADME, organism-based, Canis lupus familiaris.
Data set [22] in a line: Plasma protein binding in human at 1 mg/kg, po after 24 hrs by LC-MS/MS analysis. Format: ADME, organism-based. Also on record: dose 1 mg/kg, route oral. To be noted: read-out: PPB (converted).
A short description of data set [23]: Apparent permeability from apical to basolateral side in human Caco2 cells at 5 uM. The settings on record: Caco-2. In kind it is ADME, cell-based. In general terms: Caco-2 monolayers are a common model of the intestinal barrier.
A short description of data set [24]: Apparent permeability from basolateral to apical side in human Caco2 cells at 5 uM. Format: ADME, cell-based. The settings on record: Caco-2.
The target in data set [25] is Tyrosine-protein kinase JAK2 (Homo sapiens, UniProt O60674). Kind of data set: Inhibition of Jak2 in erythropoietin-stimulated human TF1 cells assessed as assessed as phospho-Stat5 after 1 hr incubation. In kind it is cell-based, TF-1.
The target of data set [26] is Mast/stem cell growth factor receptor Kit (Mus musculus, UniProt P05532). Kind of data set: Inhibition of cKit in stem cell factor-stimulated bone marrow derived mouse mast cells assessed as phosphorylation after 1 hr incubation.
Data set [27] concerns the target Proto-oncogene tyrosine-protein kinase receptor Ret (Homo sapiens, UniProt P07949). Kind of data set: Inhibition of Ret in human […] cells assessed as assessed as phosphorylation after 1 hr incubation. In kind it is cell-based.
In data set [28] the target is Vascular endothelial growth factor receptor 2 (Homo sapiens, UniProt P35968). The data set is described as follows: Inhibition of KDR in VEGF-stimulated HUVEC assessed as phosphorylation after 1 hr incubation.
Data set [29] has as its target T2, Tyrosine-protein kinase SYK (Homo sapiens, UniProt P43405).
Description: Inhibition of full length Syk (unknown origin) using biotinylated peptide substrate
For data set [30], the target named is T2, Tyrosine-protein kinase SYK. The source holds these as a separate data set.
Description: Inhibition of Syk in antihuman IgM-stimulated human Ramos cells assessed as decrease in BCR-mediated BLNK phosphorylation by cellular assay
Data set [31] has the same target. This is another data set of the same source.
Description: Inhibition of Syk in goat antihuman IgE-induced CD63 expression in human whole blood by FACS analysis
The nature of data set [32]: Oral bioavailability in Sprague-Dawley rat at 10 mg/kg. In kind it is ADME, organism-based. To be noted: in vivo.
The nature of data set [33]: Clearance in Sprague-Dawley rat at 10 mg/kg, po. Format: ADME, organism-based. The settings on record: in vivo. Also noted: dose 10 mg/kg, route oral.
Data set [34] is described as follows: Lipophilicity, change in log P of the compound. To be noted: octanol/water.

Molecules are shown by their SMILES. Values after ≈ are worked out from the molar mass of the structure shown. A value given as a limit tells only on which side of the number the result lay.

Sequence of Mast/stem cell growth factor receptor Kit (P05532 whole entry): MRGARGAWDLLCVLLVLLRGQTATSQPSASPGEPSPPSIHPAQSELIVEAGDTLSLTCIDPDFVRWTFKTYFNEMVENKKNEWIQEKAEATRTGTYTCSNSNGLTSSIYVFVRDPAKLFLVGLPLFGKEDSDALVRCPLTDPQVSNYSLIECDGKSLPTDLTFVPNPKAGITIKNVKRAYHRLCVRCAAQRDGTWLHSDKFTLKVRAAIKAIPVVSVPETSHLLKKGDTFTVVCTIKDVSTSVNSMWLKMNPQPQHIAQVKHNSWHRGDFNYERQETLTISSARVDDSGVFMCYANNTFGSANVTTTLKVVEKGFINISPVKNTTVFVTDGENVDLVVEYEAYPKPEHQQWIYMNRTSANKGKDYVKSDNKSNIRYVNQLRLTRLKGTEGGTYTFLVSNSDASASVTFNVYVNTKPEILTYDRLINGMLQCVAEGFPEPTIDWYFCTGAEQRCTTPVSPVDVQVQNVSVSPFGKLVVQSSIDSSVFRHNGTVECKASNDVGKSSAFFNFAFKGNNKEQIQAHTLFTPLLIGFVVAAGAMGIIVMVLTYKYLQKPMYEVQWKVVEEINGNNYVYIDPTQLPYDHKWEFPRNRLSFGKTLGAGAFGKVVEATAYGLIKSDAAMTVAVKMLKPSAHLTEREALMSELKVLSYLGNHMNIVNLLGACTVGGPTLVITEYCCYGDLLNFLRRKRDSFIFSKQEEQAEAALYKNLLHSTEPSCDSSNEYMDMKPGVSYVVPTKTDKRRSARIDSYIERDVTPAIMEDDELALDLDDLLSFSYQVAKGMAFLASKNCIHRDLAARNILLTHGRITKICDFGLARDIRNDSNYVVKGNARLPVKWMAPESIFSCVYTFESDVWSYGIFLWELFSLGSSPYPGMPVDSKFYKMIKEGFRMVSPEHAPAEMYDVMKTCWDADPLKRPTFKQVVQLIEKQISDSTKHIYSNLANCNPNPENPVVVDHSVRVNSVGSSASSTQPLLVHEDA
Sequence of Vascular endothelial growth factor receptor 2 (P35968 whole entry): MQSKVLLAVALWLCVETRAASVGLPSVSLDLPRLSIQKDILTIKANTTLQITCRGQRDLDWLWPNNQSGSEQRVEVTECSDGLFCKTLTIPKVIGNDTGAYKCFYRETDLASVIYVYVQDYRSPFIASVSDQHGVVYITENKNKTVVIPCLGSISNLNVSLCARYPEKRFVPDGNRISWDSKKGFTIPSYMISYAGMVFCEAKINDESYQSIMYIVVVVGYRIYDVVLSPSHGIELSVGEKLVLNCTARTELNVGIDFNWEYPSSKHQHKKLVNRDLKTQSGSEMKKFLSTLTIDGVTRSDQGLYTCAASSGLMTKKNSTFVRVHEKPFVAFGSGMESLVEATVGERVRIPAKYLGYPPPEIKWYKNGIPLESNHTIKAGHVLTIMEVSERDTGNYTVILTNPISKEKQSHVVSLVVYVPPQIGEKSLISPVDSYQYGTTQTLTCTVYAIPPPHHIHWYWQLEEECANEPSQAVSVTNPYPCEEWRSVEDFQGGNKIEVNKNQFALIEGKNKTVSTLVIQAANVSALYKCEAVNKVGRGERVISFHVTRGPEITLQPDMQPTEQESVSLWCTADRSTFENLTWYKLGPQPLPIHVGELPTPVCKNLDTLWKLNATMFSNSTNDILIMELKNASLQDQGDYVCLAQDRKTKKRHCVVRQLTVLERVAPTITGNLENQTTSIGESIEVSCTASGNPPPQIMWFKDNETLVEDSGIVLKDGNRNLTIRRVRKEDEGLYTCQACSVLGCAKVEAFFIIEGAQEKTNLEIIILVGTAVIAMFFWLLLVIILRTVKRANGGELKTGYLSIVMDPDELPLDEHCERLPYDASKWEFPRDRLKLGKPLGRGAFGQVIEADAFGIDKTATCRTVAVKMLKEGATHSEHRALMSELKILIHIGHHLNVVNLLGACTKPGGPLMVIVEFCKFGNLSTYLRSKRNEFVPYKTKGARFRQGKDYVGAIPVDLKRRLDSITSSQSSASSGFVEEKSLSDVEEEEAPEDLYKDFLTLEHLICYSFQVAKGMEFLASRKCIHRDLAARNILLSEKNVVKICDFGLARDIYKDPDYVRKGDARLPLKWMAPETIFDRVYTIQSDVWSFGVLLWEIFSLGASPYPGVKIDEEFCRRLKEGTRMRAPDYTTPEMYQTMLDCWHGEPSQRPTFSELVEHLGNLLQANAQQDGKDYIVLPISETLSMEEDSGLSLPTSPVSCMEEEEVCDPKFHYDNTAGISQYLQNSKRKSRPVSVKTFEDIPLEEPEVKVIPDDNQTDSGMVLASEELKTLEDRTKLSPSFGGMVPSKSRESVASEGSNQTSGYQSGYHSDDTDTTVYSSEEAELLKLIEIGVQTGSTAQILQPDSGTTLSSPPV
Sequence of Cytochrome P450 2D6 (P10635 whole entry): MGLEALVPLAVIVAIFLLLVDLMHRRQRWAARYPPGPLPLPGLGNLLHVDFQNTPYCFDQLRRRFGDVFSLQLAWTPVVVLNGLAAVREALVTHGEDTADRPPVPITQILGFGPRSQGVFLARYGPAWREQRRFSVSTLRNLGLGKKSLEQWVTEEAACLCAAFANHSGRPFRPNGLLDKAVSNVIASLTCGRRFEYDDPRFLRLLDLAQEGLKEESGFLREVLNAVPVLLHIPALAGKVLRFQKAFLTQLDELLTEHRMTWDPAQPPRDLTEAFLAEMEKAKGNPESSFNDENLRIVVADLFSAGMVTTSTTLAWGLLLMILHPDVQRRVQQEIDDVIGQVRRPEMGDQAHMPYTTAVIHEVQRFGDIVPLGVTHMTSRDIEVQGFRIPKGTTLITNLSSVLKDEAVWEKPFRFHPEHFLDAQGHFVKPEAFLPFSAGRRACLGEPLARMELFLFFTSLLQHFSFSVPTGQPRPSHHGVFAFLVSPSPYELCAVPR
Sequence of Proto-oncogene tyrosine-protein kinase receptor Ret (P07949 whole entry): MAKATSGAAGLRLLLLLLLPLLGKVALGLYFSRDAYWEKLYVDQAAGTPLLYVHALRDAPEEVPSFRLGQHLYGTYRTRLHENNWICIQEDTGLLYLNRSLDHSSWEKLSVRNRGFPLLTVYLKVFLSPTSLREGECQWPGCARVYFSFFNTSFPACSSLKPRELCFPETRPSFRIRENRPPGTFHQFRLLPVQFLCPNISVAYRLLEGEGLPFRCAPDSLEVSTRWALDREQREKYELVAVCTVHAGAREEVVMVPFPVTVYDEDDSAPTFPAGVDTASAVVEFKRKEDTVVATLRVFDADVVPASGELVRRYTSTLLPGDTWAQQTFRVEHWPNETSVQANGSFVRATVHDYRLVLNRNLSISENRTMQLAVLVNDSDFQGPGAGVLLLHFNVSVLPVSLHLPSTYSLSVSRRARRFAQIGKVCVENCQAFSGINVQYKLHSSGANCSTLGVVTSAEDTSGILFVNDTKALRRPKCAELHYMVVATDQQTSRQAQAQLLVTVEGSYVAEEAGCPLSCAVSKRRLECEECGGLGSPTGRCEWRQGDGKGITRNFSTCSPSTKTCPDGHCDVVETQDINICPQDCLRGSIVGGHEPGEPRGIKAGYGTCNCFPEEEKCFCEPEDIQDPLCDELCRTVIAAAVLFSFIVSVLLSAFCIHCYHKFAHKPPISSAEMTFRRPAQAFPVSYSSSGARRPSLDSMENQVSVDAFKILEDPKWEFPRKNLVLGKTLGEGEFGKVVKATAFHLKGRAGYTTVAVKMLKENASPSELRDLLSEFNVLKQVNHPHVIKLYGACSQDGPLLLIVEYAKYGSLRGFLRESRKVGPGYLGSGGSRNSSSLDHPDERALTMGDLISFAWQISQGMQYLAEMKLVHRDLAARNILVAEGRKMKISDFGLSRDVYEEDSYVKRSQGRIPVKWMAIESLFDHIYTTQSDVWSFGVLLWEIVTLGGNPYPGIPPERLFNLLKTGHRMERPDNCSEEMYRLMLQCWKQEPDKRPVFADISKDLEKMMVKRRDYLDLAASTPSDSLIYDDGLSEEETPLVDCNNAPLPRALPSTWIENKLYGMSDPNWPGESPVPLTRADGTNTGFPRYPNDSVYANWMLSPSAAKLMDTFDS
Sequence of Tyrosine-protein kinase JAK2 (O60674 whole entry): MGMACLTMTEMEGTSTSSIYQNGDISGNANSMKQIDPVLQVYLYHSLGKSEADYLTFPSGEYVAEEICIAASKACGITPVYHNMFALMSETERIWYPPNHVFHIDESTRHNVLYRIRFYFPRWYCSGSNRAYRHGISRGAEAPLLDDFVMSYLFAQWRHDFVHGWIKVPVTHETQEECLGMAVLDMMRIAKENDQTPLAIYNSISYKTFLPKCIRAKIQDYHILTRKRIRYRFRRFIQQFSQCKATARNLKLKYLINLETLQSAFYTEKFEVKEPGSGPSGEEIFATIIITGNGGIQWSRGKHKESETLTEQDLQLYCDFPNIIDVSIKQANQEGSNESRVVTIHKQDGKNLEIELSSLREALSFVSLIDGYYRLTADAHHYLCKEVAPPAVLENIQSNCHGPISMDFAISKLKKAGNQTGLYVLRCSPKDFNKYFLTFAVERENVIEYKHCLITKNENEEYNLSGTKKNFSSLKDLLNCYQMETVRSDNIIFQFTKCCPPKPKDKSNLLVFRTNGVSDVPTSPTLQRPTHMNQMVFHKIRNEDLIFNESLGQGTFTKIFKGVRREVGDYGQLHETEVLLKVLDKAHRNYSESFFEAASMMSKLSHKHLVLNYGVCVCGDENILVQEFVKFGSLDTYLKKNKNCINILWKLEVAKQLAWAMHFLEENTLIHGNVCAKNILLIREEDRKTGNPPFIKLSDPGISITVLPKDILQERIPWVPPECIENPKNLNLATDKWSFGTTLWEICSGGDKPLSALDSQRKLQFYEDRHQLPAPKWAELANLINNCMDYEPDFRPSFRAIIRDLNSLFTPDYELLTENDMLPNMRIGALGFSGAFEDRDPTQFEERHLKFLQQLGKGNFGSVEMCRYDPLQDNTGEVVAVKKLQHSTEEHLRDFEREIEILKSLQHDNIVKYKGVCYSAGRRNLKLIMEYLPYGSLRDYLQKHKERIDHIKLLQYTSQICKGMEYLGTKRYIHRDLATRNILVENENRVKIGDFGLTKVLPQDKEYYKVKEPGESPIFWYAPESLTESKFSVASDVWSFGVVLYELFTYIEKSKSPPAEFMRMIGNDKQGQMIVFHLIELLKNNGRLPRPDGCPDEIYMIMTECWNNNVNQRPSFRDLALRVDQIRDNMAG

Turning to `c1cn2cc(-c3ccc4cn[nH]c4c3)nc(Nc3ccc(N4CCOCC4)cc3)c2n1` [ENTOSPLETINIB], the IC50 on Cytochrome P450 1A2, on Cytochrome P450 2C9, on Cytochrome P450 2C19 and against Cytochrome P450 2D6 was > 10000 nM throughout. Also, the fraction unbound in [1] was 0.027. In addition, the figures for the solubility in data set [2] and in [3] were 16 µM (≈ 6.58 µg/mL) and 2 µM (≈ 0.823 µg/mL), respectively. Also, the EC50 in data set [4] was 1900 nM; in data set [25], 453 nM; in data set [26] it was 445 nM; in [27], > 1000 nM; in data set [28], > 1000 nM. In addition, the ED50 with Rattus norvegicus [5] is 3.9 mg/kg; in the data set on Rattus norvegicus [6], 2.1 mg/kg; with Rattus norvegicus [7], 2.8 mg/kg; with Rattus norvegicus [8], 1.2 mg/kg; in the data set on Rattus norvegicus [9] it was 3 mg/kg. Moreover, the CLhep predicted at 3 µM in [10] was 4.83 mL/min/kg. Moreover, the half-life at 3 µM in data set [11] amounted to 35 min; in [12], 23.4 min; in data set [13], 98.6 min. Moreover, the clearance in data set [14] was 4.5 mL/min/kg; in data set [15], 13.3 mL/min/kg. Further, the results for the Vd in [16] and in data set [17] were 0.52 L/kg and 1.41 L/kg, respectively. Also, the bioavailability in data set [18] was 67%; in data set [19], 53%. Moreover, the fraction unbound at 24 h in data set [20] is 0.008; in data set [21], 0.072; in [22], 0.029. Moreover, the apical-to-basolateral permeability (Papp A→B) at 5 µM in data set [23] is 3.2 ×10⁻⁶ cm/s. The Papp B→A at 5 µM in data set [24] amounted to 1.95 ×10⁻⁶ cm/s.
As to `c1cn2cc(-c3ccc4cn[nH]c4c3)nc(Nc3ccc(C4CCOCC4)cc3)c2n1`, in [10], the CLhep predicted at 3 µM was 2 mL/min/kg. In [29], this molecule gave an IC50 of 3.8 nM. The results for the EC50 in data set [30] and in data set [31] were 2370 nM and > 10000 nM, respectively.
Consider `COc1cc(Nc2nc(-c3ccc4cn[nH]c4c3)cn3ccnc23)ccc1N1CCOCC1`, for which the CLhep predicted at 3 µM in data set [10] was 12.5 mL/min/kg.
Same read-out and setting: to `CC1(O)CCN(c2ccc(Nc3nc(-c4ccc5cn[nH]c5c4)cn4ccnc34)cc2)CC1` belongs 4.5 mL/min/kg.
On to `COc1ccc(Nc2nc(-c3ccc(C(N)=O)cc3)cn3ccnc23)cc1OC`, for which, in data set [32], the bioavailability turned out to be 22%. This molecule also gave a CL/F in data set [33] of 50.8 mL/min/kg. Moreover, in [34], the ΔlogP worked out at 1.4.
In data set [34], `COc1ccc(Nc2nc(-c3cccc(C(N)=O)c3)cn3ccnc23)cc1OC` gave a ΔlogP of 1.4.
In the case of `O=S1(=O)CCN(c2ccc(Nc3nc(-c4ccc5cn[nH]c5c4)cn4ccnc34)cc2)CC1`, the CLhep predicted at 3 µM in [10] was 10 mL/min/kg. In [29], this molecule showed an IC50 of 2.1 nM. In addition, the EC50 was 40 nM in data set [30] and > 10000 nM in [31].
`COc1cc(Nc2ncc(F)c(Nc3ccc4c(n3)NC(=O)C(C)(C)O4)n2)cc(OC)c1OC` [R-406]: the EC50 in data set [26] was 46 nM.
`COc1cccc(Nc2nc(-c3ccc4cn[nH]c4c3)cn3ccnc23)c1`: in [29], inhibition was half-maximal at 8.5 nM (IC50). This molecule displayed an EC50 in data set [30] of 374 nM.
In [29], `CN(CCO)c1ccc(Nc2nc(-c3ccc4cn[nH]c4c3)cn3ccnc23)cc1` yielded an IC50 of 7.6 nM. For the same molecule, the results for the EC50 in data set [30] and in data set [31] were 42 nM and 1090 nM, respectively.
For `c1cn2cc(-c3ccc4cn[nH]c4c3)nc(Nc3ccc(N4CCCOCC4)cc3)c2n1`, the CLhep predicted at 3 µM in data set [10] was 5 mL/min/kg. This molecule displayed an IC50 in [29] of 23.1 nM. The molecule also yielded a 50% effective concentration (EC50) in data set [30] of 73 nM.
Regarding `c1ccc(Nc2nc(-c3ccc4cn[nH]c4c3)cn3ccnc23)cc1`, in data set [10], the CLhep predicted at 3 µM was 8.17 mL/min/kg.
Take `COc1ccc(Nc2nc(-c3ccc4cn[nH]c4c3)cn3ccnc23)cc1OC`: the bioavailability in [32] amounted to 36%. The same molecule showed a CL/F in data set [33] of 35 mL/min/kg.
On to `CC1(O)CN(c2ccc(Nc3nc(-c4ccc5cn[nH]c5c4)cn4ccnc34)cc2)C1`, for which, in [29], 3.9 nM corresponded to half-maximal inhibition (IC50). In addition, the EC50 turned out to be 80 nM in data set [30] and 1260 nM in data set [31].
